Measured values as given in ChEMBL document CHEMBL1201862, “PubChem BioAssay data set” (2004).
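How tested: cells in 96-well plates exposed to compound for 48 hours at five concentrations. GI50 marks 50% less growth.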 Activity calls are given as the source filed them. Rule as the data show it: active = GI50 up to about 1.1 µM and inactive = higher. Square brackets hold non-standard residues; d marks the D form. Peptide text beside a SMILES is read from it. * marks the point of attachment. Tyr(3-Br) = N[C@@H](Cc1ccc(O)c(Br)c1)C(=O)O; Boc = CC(C)(C)OC(=O)*

Assays:
Assay in all cases: growth of human tumour cells (NCI), 48 h
COLO 205 = test system: COLO 205
EKVX = test system: EKVX
HCT-116 = test system: HCT-116
HCT-15 = test system: HCT-15
HOP-62 = test system: HOP-62
HT-29 = test system: HT-29
LOX IMVI = test system: LOX IMVI
MCF7 = test system: MCF7
MDA-MB-435 = test system: MDA-MB-435
MDA-N = test system: MDA-N
NCI-H460 = test system: NCI-H460
OVCAR-4 = test system: OVCAR-4
PC-3 = test system: PC-3
RPMI-8226 = test system: RPMI-8226
SF-268 = test system: SF-268
SF-539 = test system: SF-539
SK-MEL-2 = test system: SK-MEL-2
SK-MEL-5 = test system: SK-MEL-5
TK-10 = test system: TK-10
UO-31 = test system: UO-31

N#C/C(=C\c1ccc(Cl)cc1)c1nc(-c2cc3ccccc3oc2=O)cs1
GI50 (COLO 205): > 100 µM (inactive)
GI50 (EKVX): > 100 µM (inactive)
GI50 (HCT-116): 67.6 µM (inactive)
GI50 (HCT-15): > 100 µM
GI50 (HOP-62): 24.8 µM (inactive)
GI50 (HT-29): > 100 µM (inactive)
GI50 (LOX IMVI): 59.6 µM (inactive)
GI50 (MCF7): > 100 µM (inactive)
GI50 (MDA-MB-435): > 100 µM (inactive)
GI50 (MDA-N): 59.8 µM (inactive)
GI50 (NCI-H460): 42.6 µM (inactive)
GI50 (OVCAR-4): 33.5 µM (inactive)
GI50 (PC-3): > 100 µM (inactive)
GI50 (RPMI-8226): > 100 µM (inactive)
GI50 (SF-268): 34.8 µM (inactive)
GI50 (SF-539): 39.8 µM (inactive)
GI50 (SK-MEL-2): > 100 µM (inactive)
GI50 (SK-MEL-5): 90.4 µM (inactive)
GI50 (TK-10): 26.9 µM (inactive)
GI50 (UO-31): 80.7 µM (inactive)

COc1ccc(C(=O)N2CCN(c3ccc4c(c3)OCC(=O)N4)CC2)cc1
GI50 (COLO 205): > 100 µM (inactive)
GI50 (EKVX): 94 µM (inactive)
GI50 (HCT-116): > 100 µM (inactive)
GI50 (HCT-15): > 100 µM
GI50 (HOP-62): > 100 µM (inactive)
GI50 (HT-29): > 100 µM (inactive)
GI50 (LOX IMVI): > 100 µM (inactive)
GI50 (MCF7): > 100 µM (inactive)
GI50 (MDA-MB-435): > 100 µM (inactive)
GI50 (MDA-N): > 100 µM (inactive)
GI50 (NCI-H460): > 100 µM (inactive)
GI50 (OVCAR-4): > 100 µM (inactive)
GI50 (PC-3): > 100 µM (inactive)
GI50 (RPMI-8226): > 100 µM (inactive)
GI50 (SF-268): > 100 µM (inactive)
GI50 (SF-539): > 100 µM (inactive)
GI50 (SK-MEL-2): > 100 µM (inactive)
GI50 (SK-MEL-5): > 100 µM (inactive)
GI50 (TK-10): > 100 µM (inactive)
GI50 (UO-31): > 100 µM (inactive)

CC(C)(C)[Si](C)(C)OCC1OC(n2ccc(=O)[nH]c2=O)C(O[Si](C)(C)C(C)(C)C)/C1=N/O (centres undefined)
GI50 (COLO 205): 2.42 µM (inactive)
GI50 (EKVX): 4.13 µM (inactive)
GI50 (HCT-116): 2.45 µM (inactive)
GI50 (HCT-15): 3.26 µM
GI50 (HOP-62): 4.63 µM (inactive)
GI50 (HT-29): 2.84 µM (inactive)
GI50 (LOX IMVI): 4.67 µM (inactive)
GI50 (MCF7): 3.47 µM (inactive)
GI50 (MDA-MB-435): 3.11 µM (inactive)
GI50 (MDA-N): 4.08 µM (inactive)
GI50 (NCI-H460): 3.44 µM (inactive)
GI50 (OVCAR-4): 4.25 µM (inactive)
GI50 (PC-3): 3.99 µM (inactive)
GI50 (RPMI-8226): 2.73 µM (inactive)
GI50 (SF-539): 3.11 µM (inactive)
GI50 (SK-MEL-2): 3.21 µM (inactive)
GI50 (SK-MEL-5): 2.45 µM (inactive)
GI50 (TK-10): 6.68 µM (inactive)
GI50 (UO-31): 3.61 µM (inactive)

C=CC1C(OC2OC(CO)C(O)C(O)C2O)OC=C(C(=O)OC)C1CC1CC(=O)CC(CCc2ccc(O)cc2)O1 (centres undefined)
GI50 (COLO 205): > 100 µM (inactive)
GI50 (EKVX): > 100 µM (inactive)
GI50 (HCT-116): > 100 µM (inactive)
GI50 (HCT-15): > 100 µM
GI50 (HOP-62): > 100 µM (inactive)
GI50 (HT-29): > 100 µM (inactive)
GI50 (LOX IMVI): > 100 µM (inactive)
GI50 (MCF7): > 100 µM (inactive)
GI50 (MDA-MB-435): > 100 µM (inactive)
GI50 (MDA-N): > 100 µM (inactive)
GI50 (NCI-H460): > 100 µM (inactive)
GI50 (OVCAR-4): > 100 µM (inactive)
GI50 (PC-3): > 100 µM (inactive)
GI50 (RPMI-8226): > 100 µM (inactive)
GI50 (SF-268): > 100 µM (inactive)
GI50 (SF-539): > 100 µM (inactive)
GI50 (SK-MEL-2): > 100 µM (inactive)
GI50 (SK-MEL-5): > 100 µM (inactive)
GI50 (TK-10): > 100 µM (inactive)
GI50 (UO-31): > 100 µM (inactive)

C/C(=C1/N=C(c2ccccc2)OC1=O)c1ccc(C)cc1
GI50 (COLO 205): > 100 µM (inactive)
GI50 (EKVX): > 100 µM (inactive)
GI50 (HCT-116): > 100 µM (inactive)
GI50 (HCT-15): > 100 µM
GI50 (HOP-62): > 100 µM (inactive)
GI50 (HT-29): > 100 µM (inactive)
GI50 (LOX IMVI): > 100 µM (inactive)
GI50 (MCF7): > 100 µM (inactive)
GI50 (MDA-MB-435): > 100 µM (inactive)
GI50 (MDA-N): > 100 µM (inactive)
GI50 (NCI-H460): > 100 µM (inactive)
GI50 (OVCAR-4): > 100 µM (inactive)
GI50 (PC-3): > 100 µM (inactive)
GI50 (RPMI-8226): 74.1 µM (inactive)
GI50 (SF-268): > 100 µM (inactive)
GI50 (SF-539): > 100 µM (inactive)
GI50 (SK-MEL-2): > 100 µM (inactive)
GI50 (SK-MEL-5): > 100 µM (inactive)
GI50 (TK-10): > 100 µM (inactive)

O=C(O)c1c(O)c2cc(Br)ccc2oc1=O
GI50 (COLO 205): > 100 µM (inactive)
GI50 (EKVX): > 100 µM (inactive)
GI50 (HCT-116): > 100 µM (inactive)
GI50 (HCT-15): > 100 µM
GI50 (HOP-62): > 100 µM (inactive)
GI50 (HT-29): > 100 µM (inactive)
GI50 (LOX IMVI): > 100 µM (inactive)
GI50 (MCF7): > 100 µM (inactive)
GI50 (MDA-MB-435): > 100 µM (inactive)
GI50 (MDA-N): > 100 µM (inactive)
GI50 (NCI-H460): > 100 µM (inactive)
GI50 (OVCAR-4): > 100 µM (inactive)
GI50 (PC-3): > 100 µM (inactive)
GI50 (RPMI-8226): > 100 µM (inactive)
GI50 (SF-268): > 100 µM (inactive)
GI50 (SF-539): > 100 µM (inactive)
GI50 (SK-MEL-2): > 100 µM (inactive)
GI50 (SK-MEL-5): > 100 µM (inactive)
GI50 (TK-10): > 100 µM (inactive)

COC(=O)C(=O)C(C(=O)C(=O)Nc1nc2ccc(C)cc2s1)c1nc2ccc([N+](=O)[O-])cc2nc1O (centres undefined)
GI50 (EKVX): 68.4 µM (inactive)
GI50 (HCT-116): > 100 µM (inactive)
GI50 (HCT-15): > 100 µM
GI50 (HOP-62): > 100 µM (inactive)
GI50 (HT-29): > 100 µM (inactive)
GI50 (LOX IMVI): > 100 µM (inactive)
GI50 (MCF7): > 100 µM (inactive)
GI50 (MDA-MB-435): > 100 µM (inactive)
GI50 (MDA-N): > 100 µM (inactive)
GI50 (NCI-H460): > 100 µM (inactive)
GI50 (OVCAR-4): > 10 µM (inactive)
GI50 (PC-3): > 100 µM (inactive)
GI50 (RPMI-8226): > 100 µM (inactive)
GI50 (SF-268): > 100 µM (inactive)
GI50 (SF-539): > 100 µM (inactive)
GI50 (SK-MEL-2): > 100 µM (inactive)
GI50 (SK-MEL-5): > 100 µM (inactive)
GI50 (TK-10): > 100 µM (inactive)
GI50 (UO-31): 58.5 µM (inactive)

COC(=O)c1c(O)ccc2c1c1c(n2Cc2ccc(Cl)cc2Cl)C(=O)c2ccccc2C1
GI50 (COLO 205): 45.7 µM (inactive)
GI50 (HCT-116): 87.9 µM (inactive)
GI50 (HCT-15): 42.7 µM
GI50 (HOP-62): > 100 µM (inactive)
GI50 (HT-29): 79.6 µM (inactive)
GI50 (LOX IMVI): 27 µM (inactive)
GI50 (MCF7): 26.8 µM (inactive)
GI50 (MDA-MB-435): 45.1 µM (inactive)
GI50 (MDA-N): 52.8 µM (inactive)
GI50 (NCI-H460): 33.3 µM (inactive)
GI50 (OVCAR-4): 27.1 µM (inactive)
GI50 (PC-3): 24.1 µM (inactive)
GI50 (RPMI-8226): 19.7 µM (inactive)
GI50 (SF-268): 32.5 µM (inactive)
GI50 (SF-539): 54.5 µM (inactive)
GI50 (SK-MEL-2): 60.4 µM (inactive)
GI50 (SK-MEL-5): 89.5 µM (inactive)
GI50 (TK-10): > 100 µM (inactive)
GI50 (UO-31): 97.9 µM (inactive)

COc1cc2c(cc1OCCCNC(=O)c1cc3ccccc3[nH]1)N=C[C@@H]1CCCN1C2=O
GI50 (COLO 205): 0.391 µM (active)
GI50 (EKVX): 1.02 µM (active)
GI50 (HCT-116): 0.24 µM (active)
GI50 (HCT-15): 0.897 µM
GI50 (HOP-62): 0.326 µM (active)
GI50 (HT-29): 0.296 µM (active)
GI50 (LOX IMVI): 0.421 µM (active)
GI50 (MCF7): 0.258 µM (active)
GI50 (MDA-MB-435): 0.243 µM (active)
GI50 (MDA-N): 0.254 µM (active)
GI50 (NCI-H460): 0.675 µM (active)
GI50 (OVCAR-4): 0.403 µM (active)
GI50 (PC-3): 0.358 µM (active)
GI50 (RPMI-8226): 0.474 µM (active)
GI50 (SF-268): 0.082 µM (active)
GI50 (SF-539): 0.24 µM (active)
GI50 (SK-MEL-2): 0.179 µM (active)
GI50 (SK-MEL-5): 0.195 µM (active)
GI50 (TK-10): 0.359 µM (active)
GI50 (UO-31): 0.318 µM (active)

COC(=O)[C@H](Cc1ccc(O)c(Br)c1)NC(=O)[C@H](Cc1ccc(O)cc1)NC(=O)OC(C)(C)C (Boc-Tyr-[Tyr(3-Br)]-OMe)
GI50 (COLO 205): 39.9 µM (inactive)
GI50 (EKVX): > 100 µM (inactive)
GI50 (HCT-116): 45.6 µM (inactive)
GI50 (HCT-15): 21.6 µM
GI50 (HOP-62): > 100 µM (inactive)
GI50 (HT-29): 37.7 µM (inactive)
GI50 (LOX IMVI): 22.5 µM (inactive)
GI50 (MCF7): 31.3 µM (inactive)
GI50 (MDA-MB-435): 23 µM (inactive)
GI50 (MDA-N): > 100 µM (inactive)
GI50 (NCI-H460): 19.2 µM (inactive)
GI50 (OVCAR-4): 29.8 µM (inactive)
GI50 (PC-3): > 100 µM (inactive)
GI50 (RPMI-8226): 28.4 µM (inactive)
GI50 (SF-268): 48.3 µM (inactive)
GI50 (SF-539): 28.7 µM (inactive)
GI50 (SK-MEL-2): 37 µM (inactive)
GI50 (TK-10): > 100 µM (inactive)
GI50 (UO-31): 29 µM (inactive)
